Molecular target: GCN2 (Homo sapiens (Human), UniProt Q9P2K8)
Experiment: GCN2 Biochemical Assay (TR-FRET, GFP-eIF2S1 substrate phosphorylation)
Conditions: read-out: IC50 (GCN2 Inhibitory Activity)
Method in brief: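 TR-FRET readout (Ex 340, Em 490/520 nm) after 2–3 h with Tb-labelled phospho-eIF2S1 antibody in stop mix, following a 70 min room-temperature kinase step. Reaction: in-house GCN2, GFP-eIF2S1, ATP, tRNA in Tris pH 7.5 (2× stocks 1.6 nM, 50 nM, 0.2 mM); compounds tested at 10 concentrations, with a phospho-substrate artifact counter-plate.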

Chain of GCN2 (Q9P2K8 whole entry): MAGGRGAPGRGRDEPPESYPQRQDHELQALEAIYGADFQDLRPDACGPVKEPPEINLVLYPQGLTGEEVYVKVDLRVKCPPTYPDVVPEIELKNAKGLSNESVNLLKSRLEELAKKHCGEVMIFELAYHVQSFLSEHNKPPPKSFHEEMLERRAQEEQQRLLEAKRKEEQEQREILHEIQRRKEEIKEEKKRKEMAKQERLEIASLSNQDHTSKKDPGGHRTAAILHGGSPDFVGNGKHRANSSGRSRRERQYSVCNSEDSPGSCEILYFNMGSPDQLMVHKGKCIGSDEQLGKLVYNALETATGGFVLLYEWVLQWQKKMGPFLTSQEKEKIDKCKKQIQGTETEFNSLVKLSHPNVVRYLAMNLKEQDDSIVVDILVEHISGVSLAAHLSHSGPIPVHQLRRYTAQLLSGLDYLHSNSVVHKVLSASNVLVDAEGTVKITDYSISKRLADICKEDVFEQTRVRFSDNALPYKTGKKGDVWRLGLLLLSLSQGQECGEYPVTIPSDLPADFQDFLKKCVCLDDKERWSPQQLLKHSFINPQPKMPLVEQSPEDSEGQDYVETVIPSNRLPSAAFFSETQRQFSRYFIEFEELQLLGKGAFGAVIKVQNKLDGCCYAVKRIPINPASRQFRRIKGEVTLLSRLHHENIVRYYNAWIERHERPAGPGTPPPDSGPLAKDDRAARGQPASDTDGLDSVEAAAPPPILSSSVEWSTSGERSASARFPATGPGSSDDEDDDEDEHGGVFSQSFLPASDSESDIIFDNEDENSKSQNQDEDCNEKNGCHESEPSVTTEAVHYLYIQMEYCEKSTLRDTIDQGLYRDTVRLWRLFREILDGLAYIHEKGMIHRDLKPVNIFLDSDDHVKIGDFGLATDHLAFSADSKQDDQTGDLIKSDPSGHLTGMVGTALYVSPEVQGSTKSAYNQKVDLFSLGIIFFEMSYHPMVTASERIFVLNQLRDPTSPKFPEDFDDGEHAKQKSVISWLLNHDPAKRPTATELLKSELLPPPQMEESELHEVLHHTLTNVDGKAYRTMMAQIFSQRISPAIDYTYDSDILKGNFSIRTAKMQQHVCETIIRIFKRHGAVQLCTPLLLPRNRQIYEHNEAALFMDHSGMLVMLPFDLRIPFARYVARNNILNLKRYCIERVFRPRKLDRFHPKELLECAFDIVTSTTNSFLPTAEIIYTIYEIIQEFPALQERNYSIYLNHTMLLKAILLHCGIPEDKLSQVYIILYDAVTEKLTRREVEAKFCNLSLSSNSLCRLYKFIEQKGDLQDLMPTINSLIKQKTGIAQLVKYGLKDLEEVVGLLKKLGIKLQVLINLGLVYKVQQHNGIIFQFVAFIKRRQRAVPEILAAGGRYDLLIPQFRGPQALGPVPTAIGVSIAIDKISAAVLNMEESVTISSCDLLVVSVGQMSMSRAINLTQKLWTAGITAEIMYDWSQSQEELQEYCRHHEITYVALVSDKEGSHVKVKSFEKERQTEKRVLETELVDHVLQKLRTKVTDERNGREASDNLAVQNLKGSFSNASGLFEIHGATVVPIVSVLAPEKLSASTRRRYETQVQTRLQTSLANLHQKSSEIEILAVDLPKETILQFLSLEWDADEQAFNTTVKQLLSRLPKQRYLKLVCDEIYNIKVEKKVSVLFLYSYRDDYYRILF

SMILES | IC50
Cc1cnc(Nc2cc(C)n(C)n2)nc1-c1c[nH]c2c(N3Cc4c(cccc4-c4ccnc(N)c4)C3=O)cccc12 [Example 399, 4-(2-aminopyridin-4-yl)-2-(3-(2-((1,5-dimethyl-1H-pyrazol-3-yl)amino)-5-methylpyrimidin-4-yl)-1H-indol-7-yl)isoindolin-1-one] | < 10 nM
Cc1cnc(Nc2cc(C)n(C)n2)nc1-c1c[nH]c2c(N3Cc4c(cccc4-c4ccncc4F)C3=O)cccc12 [Example 400, 2-(3-(2-((1,5-dimethyl-1H-pyrazol-3-yl)amino)-5-methylpyrimidin-4-yl)-1H-indol-7-yl)-4-(3-fluoropyridin-4-yl)isoindolin-1-one] | < 10 nM
Cc1cnc(Nc2cc(C)n(C)n2)nc1-c1c[nH]c2c(N3Cc4c(cccc4-c4ccc(O)nc4)C3=O)cccc12 [Example 401, 2-(3-(2-((1,5-dimethyl-1H-pyrazol-3-yl)amino)-5-methylpyrimidin-4-yl)-1H-indol-7-yl)-4-(6-hydroxypyridin-3-yl)isoindolin-1-one] | < 10 nM
Cc1cnc(Nc2cc(C)n(C)n2)nc1-c1c[nH]c2c(N3Cc4c(cccc4-c4ccnc(Cl)c4)C3=O)cccc12 [Example 402, 4-(2-chloropyridin-4-yl)-2-(3-(2-((1,5-dimethyl-1H-pyrazol-3-yl)amino)-5-methylpyrimidin-4-yl)-1H-indol-7-yl)isoindolin-1-one] | 10 to 100 nM
COc1cc(-c2cccc3c2CN(c2cccc4c(-c5nc(Nc6cc(C)n(C)n6)ncc5C)c[nH]c24)C3=O)c(F)cn1 [Example 403, 2-(3-(2-((1,5-dimethyl-1H-pyrazol-3-yl)amino)-5-methylpyrimidin-4-yl)-1H-indol-7-yl)-4-(5-fluoro-2-methoxypyridin-4-yl)isoindolin-1-one] | 10 to 100 nM
Cc1cnc(Nc2cc(C)n(C)n2)nc1-c1c[nH]c2c(N3Cc4c(cccc4-c4ccnc(F)c4)C3=O)cccc12 [Example 404, 2-(3-(2-((1,5-dimethyl-1H-pyrazol-3-yl)amino)-5-methylpyrimidin-4-yl)-1H-indol-7-yl)-4-(2-fluoropyridin-4-yl)isoindolin-1-one] | < 10 nM
Cc1cnc(Nc2cc(C)n(C)n2)nc1-c1c[nH]c2c(N3Cc4c(cccc4-c4ccc(Cl)nc4)C3=O)cccc12 [Example 405, 4-(6-chloropyridin-3-yl)-2-(3-(2-((1,5-dimethyl-1H-pyrazol-3-yl)amino)-5-methylpyrimidin-4-yl)-1H-indol-7-yl)isoindolin-1-one] | 10 to 100 nM
COc1ccc(-c2cccc3c2CN(c2cccc4c(-c5nc(Nc6cc(C)n(C)n6)ncc5C)c[nH]c24)C3=O)cn1 [Example 406, 2-(3-(2-((1,5-dimethyl-1H-pyrazol-3-yl)amino)-5-methylpyrimidin-4-yl)-1H-indol-7-yl)-4-(6-methoxypyridin-3-yl)isoindolin-1-one] | 10 to 100 nM
Cc1cc(-c2cccc3c2CN(c2cccc4c(-c5nc(Nc6cc(C)n(C)n6)ncc5C)c[nH]c24)C3=O)cnc1F [Example 407, 2-(3-(2-((1,5-dimethyl-1H-pyrazol-3-yl)amino)-5-methylpyrimidin-4-yl)-1H-indol-7-yl)-4-(6-fluoro-5-methylpyridin-3-yl)isoindolin-1-one] | 10 to 100 nM
Cc1cnc(Nc2cc(C)n(C)n2)nc1-c1c[nH]c2c(N3Cc4c(cccc4-c4ccnc(N5CCNCC5)c4)C3=O)cccc12 [Example 408, 2-(3-(2-((1,5-dimethyl-1H-pyrazol-3-yl)amino)-5-methylpyrimidin-4-yl)-1H-indol-7-yl)-4-(2-(piperazin-1-yl)pyridin-4-yl)isoindolin-1-one] | < 10 nM
Cc1cnc(Nc2cc(C)n(C)n2)nc1-c1c[nH]c2c(N3Cc4c(cccc4-c4ccc(S(=O)(=O)N5CCCC5)cc4)C3=O)cccc12 [Example 409, 2-(3-(2-((1,5-dimethyl-1H-pyrazol-3-yl)amino)-5-methylpyrimidin-4-yl)-1H-indol-7-yl)-4-(4-(pyrrolidin-1-ylsulfonyl)phenyl)isoindolin-1-one] | 10 to 100 nM
Cc1cnc(Nc2cc(C)n(C)n2)nc1-c1c[nH]c2c(N3Cc4c(/C=C/c5cccc(F)c5)cccc4C3=O)cccc12 [Example 410, (E)-2-(3-(2-((1,5-dimethyl-1H-pyrazol-3-yl)amino)-5-methylpyrimidin-4-yl)-1H-indol-7-yl)-4-(3-fluorostyryl)isoindolin-1-one] | 100 to 1000 nM
Cc1cnc(Nc2cc(C)n(C)n2)nc1-c1c[nH]c2c(N3Cc4c(cccc4-c4ccnc5[nH]ccc45)C3=O)cccc12 [Example 411, 2-(3-(2-((1,5-dimethyl-1H-pyrazol-3-yl)amino)-5-methylpyrimidin-4-yl)-1H-indol-7-yl)-4-(1H-pyrrolo[2,3-b]pyridin-4-yl)isoindolin-1-one] | < 10 nM
Cc1cnc(Nc2cc(C)n(C)n2)nc1-c1c[nH]c2c(N3Cc4c(cccc4-c4ccc(C(=O)N5CCC(=O)CC5)cc4)C3=O)cccc12 [Example 412, 2-(3-(2-((1,5-dimethyl-1H-pyrazol-3-yl)amino)-5-methylpyrimidin-4-yl)-1H-indol-7-yl)-4-(4-(4-oxopiperidine-1-carbonyl)phenyl)isoindolin-1-one] | < 10 nM
Cc1cnc(Nc2cc(C)n(C)n2)nc1-c1c[nH]c2c(N3Cc4c(cccc4C4=CCSCC4)C3=O)cccc12 [Example 413, 4-(3,6-dihydro-2H-thiopyran-4-yl)-2-(3-(2-((1,5-dimethyl-1H-pyrazol-3-yl)amino)-5-methylpyrimidin-4-yl)-1H-indol-7-yl)isoindolin-1-one] | < 10 nM
Cc1cnc(Nc2cc(C)n(C)n2)nc1-c1c[nH]c2c(N3Cc4c(cccc4-c4cnc(N(C)C)nc4)C3=O)cccc12 [Example 414, 2-(3-(2-((1,5-dimethyl-1H-pyrazol-3-yl)amino)-5-methylpyrimidin-4-yl)-1H-indol-7-yl)-4-(2-(dimethylamino)pyrimidin-5-yl)isoindolin-1-one] | < 10 nM
Cc1cnc(Nc2cc(C)n(C)n2)nc1-c1c[nH]c2c(N3Cc4c(cccc4-c4cnn(CC5CC5)c4)C3=O)cccc12 [Example 415, 4-(1-(cyclopropylmethyl)-1H-pyrazol-4-yl)-2-(3-(2-((1,5-dimethyl-1H-pyrazol-3-yl)amino)-5-methylpyrimidin-4-yl)-1H-indol-7-yl)isoindolin-1-one] | < 10 nM
Cc1cnc(Nc2cc(C)n(C)n2)nc1-c1c[nH]c2c(N3Cc4c(cccc4-c4cnn(CCN5CCOCC5)c4)C3=O)cccc12 [Example 416, 2-(3-(2-((1,5-dimethyl-1H-pyrazol-3-yl)amino)-5-methylpyrimidin-4-yl)-1H-indol-7-yl)-4-(1-(2-morpholinoethyl)-1H-pyrazol-4-yl)isoindolin-1-one] | < 10 nM
Cc1cnc(Nc2cc(C)n(C)n2)nc1-c1c[nH]c2c(N3Cc4c(cccc4-c4cncnc4)C3=O)cccc12 [Example 417, 2-(3-(2-((1,5-dimethyl-1H-pyrazol-3-yl)amino)-5-methylpyrimidin-4-yl)-1H-indol-7-yl)-4-(pyrimidin-5-yl)isoindolin-1-one] | < 10 nM
Cc1cnc(Nc2cc(C)n(C)n2)nc1-c1c[nH]c2c(N3Cc4c(cccc4-c4cnc(N)nc4)C3=O)cccc12 [Example 418, 4-(2-aminopyrimidin-5-yl)-2-(3-(2-((1,5-dimethyl-1H-pyrazol-3-yl)amino)-5-methylpyrimidin-4-yl)-1H-indol-7-yl)isoindolin-1-one] | < 10 nM
Cc1cnc(Nc2cc(C)n(C)n2)nc1-c1c[nH]c2c(N3Cc4c(cccc4-c4cncc(N)c4)C3=O)cccc12 [Example 419, 4-(5-aminopyridin-3-yl)-2-(3-(2-((1,5-dimethyl-1H-pyrazol-3-yl)amino)-5-methylpyrimidin-4-yl)-1H-indol-7-yl)isoindolin-1-one] | < 10 nM
Cc1cnc(Nc2cc(C)n(C)n2)nc1-c1c[nH]c2c(N3Cc4c(cccc4-c4ccc(N)nc4)C3=O)cccc12 [Example 420, 4-(6-aminopyridin-3-yl)-2-(3-(2-((1,5-dimethyl-1H-pyrazol-3-yl)amino)-5-methylpyrimidin-4-yl)-1H-indol-7-yl)isoindolin-1-one] | < 10 nM
Cc1cnc(Nc2cc(C)n(C)n2)nc1-c1c[nH]c2c(N3Cc4c(cccc4-c4ccncn4)C3=O)cccc12 [Example 421, 2-(3-(2-((1,5-dimethyl-1H-pyrazol-3-yl)anlino)-5-methylpyrimidin-4-yl)-1H-indol-7-yl)-4-(pyrimidin-4-yl)isoindolin-1-one] | < 10 nM
Cc1cnc(Nc2cc(C)n(C)n2)nc1-c1c[nH]c2c(N3Cc4c(cccc4-c4ccnc(N)n4)C3=O)cccc12 [Example 422, 4-(2-aminopyrimidin-4-yl)-2-(3-(2-((1,5-dimethyl-1H-pyrazol-3-yl)amino)-5-methylpyrimidin-4-yl)-1H-indol-7-yl)isoindolin-1-one] | < 10 nM
Cc1cnc(Nc2cc(C)n(C)n2)nc1-c1c[nH]c2c(N3Cc4c(cccc4-c4cc(N5CCN(C)CC5)ccn4)C3=O)cccc12 [Example 423, 2-(3-(2-((1,5-dimethyl-1H-pyrazol-3-yl)amino)-5-methylpyrimidin-4-yl)-1H-indol-7-yl)-4-(4-(4-methylpiperazin-1-yl)pyridin-2-yl)isoindolin-1-one] | < 10 nM
Cc1cnc(Nc2cc(C)n(C)n2)nc1-c1c[nH]c2c(N3Cc4c(cccc4-c4cnc(N5CCNCC5)nc4)C3=O)cccc12 [Example 424, 2-(3-(2-((1,5-dimethyl-1H-pyrazol-3-yl)amino)-5-methylpyrimidin-4-yl)-1H-indol-7-yl)-4-(2-(piperazin-1-yl)pyrimidin-5-yl)isoindolin-1-one] | < 10 nM
Cc1cnc(Nc2cc(C)n(C)n2)nc1-c1c[nH]c2c(N3Cc4c(cccc4-c4ccc(N5CCOCC5)nc4)C3=O)cccc12 [Example 425, 2-(3-(2-((1,5-dimethyl-1H-pyrazol-3-yl)amino)-5-methylpyrimidin-4-yl)-1H-indol-7-yl)-4-(6-morpholinopyridin-3-yl)isoindolin-1-one] | < 10 nM

Reference: patent US20240025884A1 (Dong-A ST Co., Ltd., priority 2022, published 2024)
